Where “and” joins values, the source holds several entries; their conditions need not be identical. Identical values can stand only once.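 How tested: cells in 96-well plates exposed to compound for 48 hours at five concentrations. The concentration for 50% growth inhibition is given as GI50. The concentration for full growth arrest is given as TGI.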
Key:
Experiment in all cases: growth of human tumour cells (NCI), 48 h
[1] = test system: HOP-62 NSCLC
[2] = test system: DU-145 prostate
[3] = test system: COLO 205 colon
[4] = test system: IGROV1 ovarian
[5] = test system: MCF7 breast
[6] = test system: OVCAR-3 ovarian
[7] = test system: OVCAR-5 ovarian
[8] = test system: HL-60(TB) leukemia
[9] = test system: RPMI-8226 leukemia
[10] = test system: HOP-92 NSCLC

SMILES	TGI [1]	TGI [2]	TGI [3]	TGI [4]	TGI [5] [µM]	TGI [6]	TGI [7]	TGI [8]	TGI [9]	TGI [10]	GI50 [1] [nM]	GI50 [2] [µM]	GI50 [3]	GI50 [4]	GI50 [5]	GI50 [6] [µM]	GI50 [7]	GI50 [8] [nM]	GI50 [9]	GI50 [10]
O=C1OC(OC/C(Br)=C(/Br)COC2OC(=O)C(Cl)=C2Cl)C(Cl)=C1Cl (stereo unspecified)	28.8 µM	30.6 µM	10.4 µM	28.2 µM	30.9	14.6 µM	33 µM	4.33 µM	5.19 µM	29.2 µM	–	–	–	–	–	–	–	–	–	–
Cc1ccccc1NC(=O)c1cc2ccccc2cc1O	7.88 µM	> 100 µM	28.6 µM	30.3 µM	37.1	7.77 µM	85.6 µM	7.34 µM	8.9 µM	5.94 µM	2470	4.03	13.8 µM	2.65 µM	3460 nM	2.56	5.88 µM	2500	2830 nM	2390 nM
CN(C)c1ncnc2c1ccn2C1OC(CO)C(O)C1O (stereo unspecified)	> 100 µM	2.94 µM	> 100 µM	4.22 µM	7.32	> 34.6 µM	> 100 µM	1.89 µM	> 71.4 µM	5.64 µM	1710	0.386	18.8 µM	0.237 µM	115 nM	0.938	5.51 µM	316	5880 nM	883 nM
CCc1nc(N)nc(N)c1C#CC(C)c1cc(-c2ccnc(C)c2)c2oc(C)nc2c1 (stereo unspecified)	5.92 µM	7.9 µM	6.9 µM	6.23 µM	11.9	15 µM	13.6 µM	2.22 µM	3.31 µM	11.4 µM	< 10	< 0.01	0.0246 µM	< 0.01 µM	11.8 nM	0.0893	< 0.0103 µM	< 10	77.1 nM	703 nM
c1ccc2c(CN3CCC(C4CCN(Cc5cccc6ccccc56)CC4)CC3)cccc2c1	21.4 µM and > 69.4 µM	> 100 µM	3.39 µM and 3.65 µM	> 100 µM	> 73.7	> 100 µM	> 100 µM	4.5 µM and 26.1 µM	15 µM and 10.9 µM	12 µM and 32.9 µM	–	–	–	32.2 µM and > 79.4 µM	–	–	22.3 µM and > 100 µM	–	–	–
COc1cc(NC(=O)c2cc(O)c(C/C=C(\C)CCC=C(C)C)c(O)c2)cc2c1O[C@]1(C)CC[C@@H](O)C(C)(C)[C@H]1C2	8.22 µM	12.2 µM	6.72 µM	11.1 µM	5.73	5.49 µM	19.2 µM	4.88 µM	1.32 µM	3.89 µM	1580	2.25	2.22 µM	2.45 µM	1080 nM	1.88	4.09 µM	549	262 nM	627 nM
COc1ccc2c(c1OC)C(=O)O[C@@H]2[C@H]1c2c(c(Br)c3c(c2OC)OCO3)CCN1C	91.2 µM	> 100 µM	> 100 µM	> 100 µM	> 100	40.8 µM	> 100 µM	> 100 µM	> 100 µM	> 100 µM	6470	> 100	27.1 µM	7.77 µM	4180 nM	10.6	> 100 µM	1820	6970 nM	21700 nM
Cn1ncnc1C1c2n[nH]c(=O)c3cc(F)cc(c23)NC1c1ccc(F)cc1 (stereo unspecified)	> 100 µM	> 100 µM	> 100 µM	> 100 µM	> 100	> 100 µM	> 100 µM	> 100 µM	> 100 µM	> 100 µM	7790	4.14	> 100 µM	> 100 µM	1570 nM	> 100	> 100 µM	4860	> 100000 nM	39900 nM
O=[N+]([O-])c1cc2c(ccc3occc32)o1	21.5 µM	9.84 µM	3.12 µM	7.32 µM	21.2	15.8 µM	15.4 µM	6.09 µM	44.3 µM	–	3940	1.16	1.57 µM	1.55 µM	701 nM	3.77	3.5 µM	1590	4000 nM	–
Cc1ccc(-c2c3c(N)c4c(nc3nc3c2c(C)nn3-c2ccccc2)CCC4)cc1	8.23 µM	4.68 µM	3.6 µM	16.2 µM	4.34	3.86 µM	13.1 µM	4.67 µM	5.53 µM	36.3 µM	2700	2.21	1.69 µM	4.02 µM	1750 nM	1.96	5.69 µM	2070	2230 nM	15700 nM
Clc1ccc(/C=C/c2nc(Cl)c(-c3ccc(Cl)cc3)c(Cl)n2)cc1	> 100 µM	> 100 µM	> 100 µM	> 100 µM	> 100	> 100 µM	> 100 µM	> 100 µM	> 100 µM	> 100 µM	–	–	–	–	–	–	–	–	–	–
CN(C)N=Nc1nn(C(=O)Nc2ccc(Cc3ccccc3)cc2)c2ccccc12	> 100 µM	> 100 µM	2.45 µM	> 100 µM	> 100	> 100 µM	> 100 µM	> 100 µM	> 100 µM	> 100 µM	> 100000	> 100	0.77 µM	43.5 µM	387 nM	11.8	> 21.6 µM	25200	5060 nM	6470 nM
COC1OC(C(C)O)C2OC(C)(C)OC12 (stereo unspecified)	> 100 µM	> 100 µM	> 100 µM	> 100 µM	> 100	> 100 µM	> 100 µM	> 100 µM	> 100 µM	–	–	–	–	–	–	–	–	–	–	–
Nc1nc(Cl)nc2c1ncn2[C@@H]1O[C@H](COS(N)(=O)=O)[C@@H](O)[C@H]1O	0.0333 µM	0.0349 µM and 0.0301 µM	0.0489 µM and 0.0543 µM	0.0915 µM and 0.0964 µM	–	0.0864 µM and 0.0714 µM	0.0401 µM and 0.0385 µM	0.0224 µM	0.0975 µM and 0.072 µM	0.0454 µM and 0.056 µM	6.84	0.00413	0.0202 µM and 0.0239 µM	0.0304 µM and 0.0308 µM	24 nM and 29.3 nM	0.0282	0.00425 µM	–	25.1 nM and 25.5 nM	15.9 nM and 20.6 nM
Nc1cc(-c2ccccc2)n(C(=O)Nc2ccc(Oc3ccccc3)cc2)n1	> 100 µM	> 100 µM	> 100 µM	> 100 µM	> 100	> 100 µM	> 100 µM	> 100 µM	> 100 µM	> 100 µM	30200	> 100	> 100 µM	36 µM	61700 nM	31.3	96.3 µM	47800	19700 nM	24200 nM
Cc1cn(Cc2ccccc2CCl)c(=O)n(Cc2ccccc2CCl)c1=O	4.13 µM	3.68 µM	3.54 µM	2.25 µM	4.77	3.65 µM	9.69 µM	3.24 µM	6.36 µM	3.62 µM	2310	1.93	1.53 µM	0.53 µM	1360 nM	1.85	2.61 µM	1370	1930 nM	1860 nM
Cc1c(C(N)=O)sc2c1c(=O)n(Cc1ccccc1)c1nnc(S(=O)(=O)CC(=O)Nc3ccc(Cl)cc3)n21	5.99 µM	36.7 µM	27.5 µM	24.3 µM	70.2	18 µM	52.1 µM	> 100 µM	> 100 µM	6.63 µM	2510	7.29	10.7 µM	8.57 µM	4760 nM	5.27	10.9 µM	40700	39100 nM	2260 nM
Cn1c2ccccc2c2[nH]c3ccccc3c(=O)c21	> 100 µM	> 100 µM	> 100 µM	> 100 µM	> 100	> 100 µM	> 100 µM	> 100 µM	> 100 µM	> 100 µM	–	–	–	–	–	–	–	–	–	–
O=C1c2ccn(CCCCN(CCO)CCO)c2C(=O)c2c1c(O)c1ccccc1c2O	> 50.5 µM	34.8 µM	> 100 µM	> 100 µM	> 58.1	> 100 µM	45 µM	–	14.8 µM	50.8 µM	16300	15.2	4.45 µM	4.97 µM	6120 nM	22.2	19.1 µM	3170	5620 nM	17700 nM
COC(=O)Nc1nc2ccc(S(=O)(=O)c3ccc(NC(=O)Nc4cc(C(F)(F)F)ccc4F)cc3)cc2[nH]1	> 25 µM	> 25 µM	> 25 µM	> 25 µM	> 25	> 25 µM	> 25 µM	> 25 µM	> 25 µM	> 25 µM	> 25000	> 25	> 25 µM	> 25 µM	> 25000 nM	> 25	> 25 µM	> 25000	> 25000 nM	> 25000 nM
Cc1cc(Cl)ccc1Nc1nc(C(F)(F)F)ccc1C(=O)Nc1cccc(C(F)(F)F)c1	11.9 µM	15.6 µM	6.13 µM	22.7 µM	7.71	19.1 µM	19.3 µM	4.67 µM	12 µM	8.16 µM	2600	3.17	2.52 µM	3.88 µM	2280 nM	3.52	4.75 µM	2060	2730 nM	2210 nM
CC1=NN(c2ccccc2)C(=O)C1N=Nc1ccc(S(N)(=O)=O)cc1 (stereo unspecified)	> 100 µM	> 100 µM	> 100 µM	> 100 µM	> 100	> 100 µM	> 100 µM	> 100 µM	> 100 µM	> 100 µM	–	–	–	–	–	–	–	–	–	–
O=C1NC(c2ccccc2)N=C2Oc3ccccc3C=C12 (stereo unspecified)	> 66.7 µM	> 100 µM	–	> 74.4 µM	> 100	> 100 µM	> 100 µM	–	> 100 µM	> 100 µM	–	–	–	–	–	–	–	–	–	–
COc1cc(-c2oc3c(OC)c(O)cc(O)c3c(=O)c2OC)ccc1O	–	> 81.5 µM	> 100 µM	15.3 µM	> 75.6	22.3 µM	78.7 µM	> 33.3 µM	46.3 µM	15.5 µM	–	–	–	–	–	–	–	–	–	–
CC1=NN(C(=O)c2nn(-c3ccc(Cl)cc3)cc2O)C(=O)C1	> 77.6 µM	> 100 µM	> 82.6 µM	41 µM	> 100	> 27.9 µM	> 78.9 µM	7.46 µM	> 88.9 µM	–	1130	8.08	3.78 µM	0.505 µM	4650 nM	1.34	–	1170	1070 nM	–
O=CN1N=C(c2ccc(Nc3ccnc4cc(Cl)ccc34)cc2)CC1c1ccc(Cl)cc1 (stereo unspecified)	> 100 µM	> 100 µM	> 100 µM	> 100 µM	> 100	> 100 µM	> 100 µM	> 100 µM	–	> 100 µM	859	1.94	2.4 µM	5.01 µM	480 nM	0.352	6.46 µM	376	–	> 100000 nM
O=C1NC(SCc2ccc(F)cc2)=N/C1=C/c1cccc(OCc2ccc(Cl)cc2)c1	–	> 100 µM	> 100 µM	> 100 µM	> 100	31.5 µM	> 100 µM	> 100 µM	> 100 µM	> 100 µM	–	> 100	> 100 µM	4.91 µM	19700 nM	5.08	> 100 µM	> 100000	> 100000 nM	67700 nM
C=C(C)C(=O)O[C@H]1CC2=CC(CC(C)=C[C@H]3OC(=O)C(=C)C13)OC2=O (stereo partly specified)	–	30.8 µM	29.3 µM	> 100 µM	49.1	70.5 µM	> 100 µM	11.8 µM	9.21 µM	32.4 µM	–	–	–	–	–	–	–	–	–	–
COc1ccc(CN=C(N)N=C(N)N)cc1OC	> 1000 µM	> 1000 µM	> 1000 µM	> 1000 µM	> 1000	> 1000 µM	> 1000 µM	> 1000 µM	–	–	602000	> 1000	> 1000 µM	> 1000 µM	855000 nM	612	> 1000 µM	706000	–	–

— PubChem BioAssay (NCI)
